Columns and labels:
[1] = Plasma exposure of Total KL1333, Part C patients with primary mitochondrial disease; details: human, in vivo
Text: (§1) Part C will comprise a randomised, multiple-dose, single-group, placebo-controlled study. A total of 8 patients diagnosed with any mitochondrial disease will be enrolled in this part of the study. Part C may start after the dose selection conference has been completed for the final cohort of Part B, at a daily dose no higher than the highest well-tolerated dose in Part B.
It is planned for patients to receive study drug QD on Days 1 to 10. Dose levels, dose frequency, and dietary state will be confirmed following review of safety, tolerability, and PK data from Part B, and unless deemed very unfavourable for the conduct of the study, the patients will not be required to be fasting prior to dosing. Study drug will be administered by clinical site staff when the patients are resident at the clinical site or return for outpatient visits. On all other days, patients will record drug administration and any concomitant medications in a diary that will be provided to each patient. Diaries will be reviewed and checked for compliance during the outpatient visits and as part of the check-in procedures on Day 10. Clinical symptoms that occur while patients are not resident at the site will be collected by the site using standard adverse event (AE) reporting procedures. […]

[2] = tested on: patients with primary mitochondrial disease; experiment: 30 Second Sit-to-Stand Test in primary mitochondrial disease patients; assay type: in vivo, human; details: 50 mg QD for 10 days, versus placebo; number of sit to stand repetitions
[3] = target: NQO1 (Homo sapiens, UniProt P15559); experiment: NQO1 substrate activity; assay type: biochemical; details: compared with other NQO1 active compounds (ie, idebenone)
Text: KL1333 is a novel compound under development for primary mitochondrial diseases. KL1333 acts as a substrate for NAD(P)H:dehydrogenase [quinone]1 (NQO1), which produces nicotinamide adenine dinucleotide (oxidized form; NAD^+) by transferring 2 electrons to KL1333 using nicotinamide adenine dinucleotide (reduced form; NADH) as a cofactor. KL1333 transfers these electrons to the mitochondrial electron transport system, directly promoting ATP production. Additionally, the elevated NAD^+ levels lead to activation of mitochondrial biogenesis pathways, such as sirtuin 1 (SIRT1), 5′-adenosine monophosphate-activated protein kinase (AMPK), and peroxisome proliferator-activated receptor gamma coactivator 1-alpha (PGC-1α), thereby improving mitochondrial function.

[4] = Drug substance properties; assay type: physicochemical; details: crystalline powder
Text: KL-1333 is a drug substance with a molecular mass of 240.26 g/mol. […] It is manufactured via multi-step chemical synthesis.

[5] = tested on: cells derived from patients with MELAS; experiment: Cellular models, including cells derived from patients with MELAS; assay type: cell-based, human; details: including MELAS patient-derived cells
[6] = tested on: healthy subjects; experiment: Safety and tolerability in healthy subjects (Parts A, B, D); assay type: in vivo, human
Procedure: Part A will comprise a randomised, single-dose, single-sequence, placebo-controlled study. Eight healthy subjects will be studied in a single cohort (Group A1). Potential subjects will be screened to assess their eligibility to enter the study within 28 days prior to the first dose administration. Subjects will participate in 2 treatment periods. For each treatment period, subjects will reside at the Phase I clinical site from Days −1 to 3 (48 hours postdose). Subjects will return to the clinical site for outpatient visits on Days 4 and 5. There will be at least a 10-day washout between doses (from Period 1, Day 1 to Period 2, Day 1).
Six subjects will be randomised to receive 25 mg KL1333 and 2 subjects will be randomised to receive placebo, and subjects will receive the same treatment in both treatment periods. On Treatment Period 1, Day 1, subjects will receive a single oral dose of study drug following an overnight fast of at least 8 hours. On Treatment Period 2, Day 1, subjects will receive a single oral dose of study drug after consuming a standard high-fat breakfast. Following review of safety, tolerability, and PK data, up to 2 additional dose cohorts of healthy subjects may be added if needed to determine the study treatment for
Part B will comprise a randomised, multiple-dose, sequential-group, placebo-controlled study. Sixteen healthy subjects will be studied in 2 cohorts (Groups B1 and B2), with each cohort consisting of 8 subjects. Part B may start after completion of Group A1, at a dose equal to or less than given in Part A.
On Day 1, 6 subjects will be randomised to receive KL1333 and 2 subjects will be randomised to receive placebo. The preliminary planned doses of KL1333 for Groups B1 and B2 are 25 and 50 mg, respectively, once daily (QD) on Days 1 to 10. Dose levels, dose frequency, and dietary state will be confirmed following review of safety, tolerability, and PK data from Part A and ongoing data from Part B. Additionally, a dose selection conference meeting will be held before each cohort in Part B where blinded data from the previous cohort will be reviewed before a decision is made about proceeding to the next cohort. Following review of safety, tolerability, and PK data, up to 3 additional dose cohorts of healthy subjects may be added to further explore the PK, safety, and tolerability of KL1333. If additional cohorts are required, each cohort will consist of 8 subjects, with 6 subjects receiving KL1333 and 2 subjects receiving placebo. The dose level will not exceed 600 mg, and the predicted exposure following multiple daily dose administration in any subject in Part B will not exceed an AUC0-24 of 51,800 ng.h/mL for derived total KL1333. There will be a minimum of 6 days between dose escalations for each cohort (between the last dose of one cohort and the first dose of the next cohort). Subjects will return for a Follow-up visit on Day 15, 5 days after their final dose.
Part D will comprise a randomised, multiple-dose, placebo-controlled study. Sixteen healthy subjects will be studied in 2 cohorts (Groups D1 and D2), with each cohort consisting of 8 subjects. Part D will start after completion of Part B, and the Part D groups may be run in parallel.
On Day 1, 6 subjects will be randomised to receive KL1333 and 2 subjects will be randomised to receive placebo. The doses of KL1333 for Groups D1 and D2 are 75 mg twice daily (BID) and 50 mg 3 times daily (TID), respectively, on Days 1 to 10 with a single dose administration on Day 10.
The safety and tolerability of KL1333 in healthy volunteers was explored at multiple ascending doses in part B and D of the study. Part D specifically explored if tolerability was improved by dividing the daily dose into two and three administrations respectively. Cohorts B3, D1 and D2 all received total daily doses of 150 mg for 10 days. Cohort B3 received 150 mg once daily (QD), cohort D1 received 75 mg twice daily (BID), and cohort D2 50 mg three times daily (TID). […]

[7] = tested on: blood lactate/pyruvate ratio; experiment: Blood lactate/pyruvate ratio in healthy volunteers; assay type: in vivo, human
Procedure: FIG. 5. Healthy volunteers were treated with KL1333 (n=36) or placebo (n=14) once daily for 9 days prior to blood sampling for measurement of lactate and pyruvate concentrations and calculation of a lactate pyruvate ratio. Data for different doses of KL1333 were combined, including 50 mg QD, 50 mg TID, 75 mg QD, 75 mg BID, 150 mg QD and 250 mg QD.
FIG. 6. The blood lactate/pyruvate concentration ratio decreased with increasing concentration of KL1333 in plasma Day 10 after treatment with KL1333. Healthy volunteers were treated with KL1333 (n=36) or placebo (n=14) once daily for 9 days prior to blood sampling for measurement of lactate and pyruvate concentrations and calculation of a lactate pyruvate ratio. Data for different doses of KL1333 were combined from 7 cohorts consisting of two placebo and 6 KL1333 subjects, treated with 25 mg QD, 50 mg QD, 50 mg TID, 75 mg QD, 75 mg BID, 150 mg QD and 250 mg QD. Data were normalized against the cohort mean value for each cohort.
(§2) For Parts B through D, blood biomarker assessments will include: • nicotinamide adenine dinucleotide (oxidized form; NAD^+)/nicotinamide adenine dinucleotide (reduced form; NADH) concentrations and ratio • fibroblast growth factor-21 (FGF21) • growth/differentiation factor-15 (GDF15) • lactate/pyruvate concentrations and ratio.

[8] = tested on: patients with primary mitochondrial disease; experiment: Daily Fatigue Impact Scale (D-FIS) in primary mitochondrial disease patients; assay type: in vivo, human
[9] = tested on: lactate/pyruvate ratio, serum niacinamide, serum xanthine; experiment: Blood and serum biomarkers in PMD patients; assay type: in vivo, human
Procedure: FIG. 7. Lactate/Pyruvate ratio in PMD patients treated daily with 50 mg KL1333 (n=6) or placebo (n=2) for 10 days.
FIG. 8. Serum niacinamide is an early biomarker of response to KL1333 treatment. PMD patients were treated with 50 mg KL1333 QD (n=6) or placebo (n=2). The data are expressed as the ratio of the niacinamide concentrations in Day 2 and Day 1 serum samples.
FIG. 9. Serum xanthinse is an early biomarker of response to KL1333 treatment. PMD patients were treated with 50 mg KL1333 QD (n=6) or placebo (n=2). The data are expressed as the ratio of the xanthine concentrations in Day 2 and Day 1 serum samples.
as §2

[10] = tested on: patients with primary mitochondrial disease; experiment: Clinical outcome assessments overall in primary mitochondrial disease patients; assay type: in vivo, human
[11] = tested on: patients with primary mitochondrial disease; experiment: Safety and tolerability in patients with primary mitochondrial disease (Part C); assay type: in vivo; details: multiple oral QD doses of 50 mg for 10 days
Text: as §1
Two patients will be initially dosed, with 1 patient receiving KL1333 and 1 patient receiving placebo. If there are no safety or tolerability concerns in these patients following the Day 4 visit, the remaining 6 patients, with 5 patients receiving KL1333 and 1 patient receiving placebo, will be enrolled on a rolling basis. In the event there are safety concerns following completion of the 2 sentinel patients without meeting stopping criteria, the Sponsor may add intermediate cohorts if the safety evaluation in intermediate cohorts will be needed. The dosing schedule of intermediate cohorts will be the same as that of the planned cohort. The schedule of safety assessments of intermediate cohorts will be the same as that of the planned cohort as a general rule. Whether or not to add safety assessments in the intermediate cohorts will be determined by the Sponsor.
It is planned for patients to receive study drug QD on Days 1 to 10. […]

[12] = tested on: patients with primary mitochondrial disease; experiment: NeuroQoL Short Form Fatigue in primary mitochondrial disease patients; assay type: in vivo, human
[13] = 50 mg QD, after one day of treatment (Day 2/Day 1)
[14] = 50 mg once daily, 10 days of dosing, PMD patients

Chain of NQO1 (P15559 whole entry, species assumed): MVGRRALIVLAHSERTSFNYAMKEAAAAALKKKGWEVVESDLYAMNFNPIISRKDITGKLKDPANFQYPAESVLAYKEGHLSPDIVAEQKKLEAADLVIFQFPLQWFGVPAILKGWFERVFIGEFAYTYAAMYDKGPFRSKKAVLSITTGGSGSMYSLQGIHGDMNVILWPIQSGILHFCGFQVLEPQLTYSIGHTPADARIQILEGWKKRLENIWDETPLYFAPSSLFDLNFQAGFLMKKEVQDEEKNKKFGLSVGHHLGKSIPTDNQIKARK

SMILES: CC(C)c1nc2c([nH]1)C(=O)C(=O)c1ccccc1-2 [KL1333]
- pharmacokinetics profile, healthy volunteers versus patients [1]: similar
- 30s Sit-to-stand test, mean change [2]: greater improvement
- potency as substrate to NQO1 [3]: more potent substrate to NQO1 than other NQO1 active compounds
- hygroscopicity [4]: non-hygroscopic
- solubility in water [4]: practically insoluble
- ATP [5]: increased ATP
- NAD+ [5]: increased NAD^+
- ROS [5]: decreased ROS
- SIRT1, AMPK and PGC-1α activation [5]: activation of SIRT1, AMPK, and PGC-1α
- lactic acid [5]: decreased lactic acid
- mitochondrial oxidative phosphorylation function [5]: improved mitochondrial oxidative phosphorylation function
- frequency and severity of loose stool episodes (Bristol Stool chart) ([6]; 150 mg daily for 10 days: 75 mg BID and 50 mg TID versus 150 mg QD): improved
- tolerability ([6]; QD doses of 150 mg, healthy subjects): tolerated
- tolerability ([6]; QD doses of 250 mg, healthy subjects, GI TEAEs): poorly tolerated
- tolerability ([6]; QD doses of 25 to 75 mg, healthy subjects): well tolerated
- tolerability of BID or TID versus QD dosing ([6]; daily doses of 150 mg, healthy subjects, GI-related adverse events): better tolerated
- clinical chemistry, hematology, urinalysis data ([6]; mean or individual subject data during the study): no apparent treatment- or dose-related trends
- tolerability ([6]; single oral doses of 25 mg with or without food, healthy subjects): well tolerated
- vital signs, 12-lead ECGs, physical examinations ([6]; whole study): no apparent treatment- or dose-related trends
- serious adverse events ([6]; whole study: 64 healthy volunteers and 8 patients, KL1333 or placebo): no serious adverse events
- blood lactate pyruvate ratio in relation to plasma concentration of KL1333 ([7]; Day 10, plasma concentration prior to blood sampling): lowest in individuals with a plasma concentration of KL1333 exceeding 100 ng/ml
- blood lactate/pyruvate ratio ([7]; after 10 days of treatment, doses combined (n=36 versus placebo n=14)): trend of decreasing
- Daily Fatigue Impact Scale, mean change ([8]; 50 mg QD for 10 days, versus placebo, reduction of fatigue impacts on daily activities): greater improvement
- correlation of DFIS change with Total KL1333 Ctrough ([8]; change from day-1 to day 10, Ctrough at day 10): statistically significant correlation
- serum niacinamide [9, 13]: increased
- serum xanthine [9, 13]: increased
- lactate/pyruvate ratio, Day 10 compared to Day 1 ([9]; 50 mg daily for 10 days (n=6), not seen in placebo): decreased
- fatigue [10, 14]: marked improvement in fatigue
- muscle strength [10, 14]: marked improvement in muscle strength
- combatting fatigue and muscle weakness ([10]; clinical outcome assessments of primary mitochondrial disease patients): effective
- tolerability [11]: well tolerated
- NeuroQoL Short Form Fatigue, mean change ([12]; 50 mg QD for 10 days, baseline to day 10, n=6 versus placebo n=2): improvement
- NeuroQol fatigue change from baseline, high exposure group versus placebo ([12]; 50 mg QD for 10 days, high exposure patients, Kruskal-Wallis test): statistically significant better than placebo
- correlation of NeuroQol SF Fatigue raw score change with Total KL1333 Ctrough ([12]; change from baseline to day 10, Ctrough at day 10): statistically significant correlation

— patent publication US20240238255A1, “KL1333 FOR USE IN MEDICINE” (ABLIVA AB, priority 2021, published 2024)
